This passage reports Ki results from patent US10023559B2 (Hoffmann-La Roche Inc., priority 2014, dated 2018).

For one test, the target named is rat TAAR1 (Rattus norvegicus (Rat), UniProt Q923Y9). Kind of test: Radioligand binding assay on rat TAAR1. Conditions: read-out: Ki(μM) rat; rat TAAR1, HEK-293 membranes, second value of cell pair mouse/rat.
For the next test, the target named is mouse TAAR1 (Mus musculus (Mouse), UniProt Q923Y8). Kind of test: Radioligand binding assay on mouse TAAR1.
mouse TAAR1, sequence (Q923Y8 whole entry): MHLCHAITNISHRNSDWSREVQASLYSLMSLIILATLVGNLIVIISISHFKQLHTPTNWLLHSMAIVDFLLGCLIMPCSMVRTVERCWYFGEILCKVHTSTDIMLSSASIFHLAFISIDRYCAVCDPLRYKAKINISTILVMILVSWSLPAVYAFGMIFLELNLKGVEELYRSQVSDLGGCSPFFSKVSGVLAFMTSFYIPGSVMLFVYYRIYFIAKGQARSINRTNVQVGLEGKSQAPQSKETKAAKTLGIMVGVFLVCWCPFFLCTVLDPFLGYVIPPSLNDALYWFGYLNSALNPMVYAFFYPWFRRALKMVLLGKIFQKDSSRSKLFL

rat TAAR1, sequence (Q923Y9 whole entry): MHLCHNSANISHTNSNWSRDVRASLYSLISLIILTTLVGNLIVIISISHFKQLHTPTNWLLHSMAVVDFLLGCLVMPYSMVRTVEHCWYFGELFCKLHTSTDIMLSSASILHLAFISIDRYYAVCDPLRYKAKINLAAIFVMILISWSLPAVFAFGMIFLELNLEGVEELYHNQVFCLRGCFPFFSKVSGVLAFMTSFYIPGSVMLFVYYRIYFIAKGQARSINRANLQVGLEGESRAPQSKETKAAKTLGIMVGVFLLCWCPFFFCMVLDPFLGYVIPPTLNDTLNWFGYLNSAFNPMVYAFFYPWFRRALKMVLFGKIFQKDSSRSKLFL
Protocol for rat TAAR1: Membrane Preparation and Radioligand Binding.
HEK-293 cells stably expressing rat TAAR1 were maintained at 37° C. and 5% CO2 in DMEM high glucose medium, containing fetal calf serum (10%, heat inactivated for 30 min at 56° C.), penicillin/streptomycin (1%), and 375 μg/ml geneticin (Gibco). Cells were released from culture flasks using trypsin/EDTA, harvested, washed twice with ice-cold PBS (without Ca^2+ and Mg^2+), pelleted at 1,000 rpm for 5 min at 4° C., frozen and stored at −80° C. Frozen pellets were suspended in 20 ml HEPES-NaOH (20 mM, pH 7.4) containing 10 mM EDTA and homogenized with a Polytron (PT 6000, Kinematica) at 14,000 rpm for 20 s. The homogenate was centrifuged at 48,000×g for 30 min at 4° C. Subsequently, the supernatant was removed and discarded, and the pellet resuspended in 20 ml HEPES-NaOH (20 mM, pH 7.4) containing 0.1 mM EDTA using the Polytron (20 s at 14,000 rpm). This procedure was repeated and the final pellet resuspended in HEPES-NaOH containing 0.1 mM EDTA and homogenized using the Polytron. Typically, aliquots of 2 ml membrane portions were stored at −80° C. With each new membrane batch the dissociation constant (Kd) was determined via a saturation curve. […] Nonspecific binding was defined as the amount of [H]—(S)-4-[(ethyl-phenyl-amino)-methyl]-4,5-dihydro-oxazol-2-ylamine bound in the presence of 10 M unlabeled ligand. All compounds were tested at a broad range of concentrations (10 pM to 10 μM) in duplicates. […] The 96 deep well plates were incubated for 1 hr at 4° C. Incubations were terminated by rapid filtration through Unifilter-96 plates (Packard Instrument Company) and glass filters GF/C (Perkin Elmer) presoaked for 1 hr in polyethylenimine (0.3%) and washed 3 times with 1 ml of cold binding buffer. After addition of 45 μl of Microscint 40 (PerkinElmer) the Unifilter-96 plate was sealed and after 1 hr the radioactivity counted using a TopCount Microplate Scintillation Counter (Packard Instrument Company).

As usually defined, the Ki is a dissociation constant, usually derived from enzyme kinetics or from competition with a known ligand. Take `F[C@H]1CN[C@@H]1Cc1ccccc1` [Example 93, (2R,3S)-2-benzyl-3-fluoroazetidine]: the Ki was determined as 2.09 µM at rat TAAR1 and 1.28 µM at mouse TAAR1.
For `Cc1cc(C(=O)Nc2ccc(C[C@H]3NC[C@H]3F)cc2)nc(C(F)(F)F)n1` [Example 119, N-(4-(((2R,3R)-3-fluoroazetidin-2-yl)methyl)phenyl)-6-methyl-2-(trifluoromethyl)pyrimidine-4-carboxamide] the same measures were 1.18 µM and 0.336 µM.
The corresponding values for `O=C(Nc1ccc(OC2CNC2)cc1)c1[nH]nc(-c2ccc(Cl)cc2)c1Cl` [Example 34, N-[4-(azetidin-3-yloxy)phenyl]-4-chloro-3-(4-chlorophenyl)-1H-pyrazole-5-carboxamide] are 0.0021 µM and 0.0009 µM.
The corresponding values for `O=C(Nc1cc(F)c(C=C2CNC2)c(F)c1)c1ccc(Cl)nc1` [Example 84, N-(4-(azetidin-3-ylidenemethyl)-3,5-difluorophenyl)-6-chloronicotinamide] are 0.0014 µM and 0.0033 µM.
For `O=C(Nc1ccc(CC2CNC2)cc1)c1ccc(Cl)nc1` [Example 64, N-[4-(azetidin-3-ylmethyl)phenyl]-6-chloro-pyridine-3-carboxamide], the Ki stood at 0.0615 µM on rat TAAR1 and 0.015 µM on mouse TAAR1.
`O=C(Nc1ccc(C[C@H]2NC[C@H]2F)cc1)c1cnc(C2CC2)nc1` [Example 124, 2-cyclopropyl-N-(4-(((2R,3R)-3-fluoroazetidin-2-yl)methyl)phenyl)pyrimidine-5-carboxamide]: the Ki on rat TAAR1 is greater than 1.5 µM; on mouse TAAR1 it was 0.0554 µM.
The corresponding values for `COc1ccc(NC(=O)Nc2ccc(C=C3CNC3)cc2)cc1` [Example 117, 1-[4-(azetidin-3-ylidenemethyl)phenyl]-3-(4-methoxyphenyl)urea] are 0.0154 µM and 0.0277 µM.
As to `FC(F)(c1ccc(Br)cc1)C1CNC1` [Example 49, 3-[(4-bromophenyl)-difluoro-methyl]azetidine], the Ki is 0.291 µM on rat TAAR1 and 1.39 µM on mouse TAAR1.
For `O=C(Nc1ccc(SC2CNC2)cc1)Nc1ccc(C(F)(F)F)cc1` [Example 110, 1-[4-(azetidin-3-ylsulfanyl)phenyl]-3-[4-(trifluoromethyl)phenyl]urea] the same measures were 0.0081 µM and 0.0131 µM.
For `CC(C)c1cc(C(=O)Nc2ccc(C[C@H]3NC[C@H]3F)cc2)[nH]n1` [Example 125, N-(4-(((2R,3R)-3-fluoroazetidin-2-yl)methyl)phenyl)-3-isopropyl-1H-pyrazole-5-carboxamide] the same measures were 0.466 µM and 0.016 µM.
The corresponding values for `Cn1nc(C(F)(F)F)c(Cl)c1C(=O)Nc1ccc(OC2CNC2)cc1` [Example 29, N-[4-(azetidin-3-yloxy)phenyl]-4-chloro-2-methyl-5-(trifluoromethyl)pyrazole-3-carboxamide] are 0.0503 µM and 0.029 µM.
As to `O=C(Nc1ccc(C=C2CNC2)cc1)c1n[nH]c(C2CC2)c1Cl` [Example 58, N-[4-(azetidin-3-ylidenemethyl)phenyl]-4-chloro-3-cyclopropyl-1H-pyrazole-5-carboxamide], the Ki on rat TAAR1 was determined as 0.0188 µM; on mouse TAAR1, 0.0014 µM.
For `O=C(Nc1ccccc1)c1ccc(OC2CNC2)cc1` [Example 20, 4-(azetidin-3-yloxy)-N-phenyl-benzamide] the same measures were 1.03 µM and 0.478 µM.
For `O=C(Nc1ccc(Cl)cc1)c1ccc(OC2CNC2)cc1` [Example 23, 4-(azetidin-3-yloxy)-N-(4-chlorophenyl)benzamide] the same measures were 0.038 µM and 0.0099 µM.
For `CCc1n[nH]c(C(=O)Nc2ccc(OC3CNC3)cc2)c1C` [Example 11, N-(4-(azetidin-3-yloxy)phenyl)-3-ethyl-4-methyl-1H-pyrazole-5-carboxamide] the same measures were 0.0808 µM and 0.0645 µM.
In the case of `O=C(Nc1ccc(Cl)nc1)c1ccc(OC2CNC2)cc1` [Example 30, 4-(azetidin-3-yloxy)-N-(6-chloropyridin-3-yl)benzamide], the figures for the Ki at rat TAAR1 and on mouse TAAR1 were 0.527 µM and 0.0191 µM, respectively.
On to `O=C(Nc1ccc(Cl)nc1)c1ccc(OC2CNC2)cc1Cl` [Example 53, 4-(azetidin-3-yloxy)-2-chloro-N-(6-chloro-3-pyridyl)benzamide], for which the Ki on rat TAAR1 amounted to 2.43 µM; at mouse TAAR1, 0.0552 µM.
As to `CCOc1ccc(C(=O)Nc2ccc(OC3CNC3)cc2)nn1` [Example 76, N-[4-(azetidin-3-yloxy)phenyl]-6-ethoxy-pyridazine-3-carboxamide], the Ki is 0.167 µM on rat TAAR1 and 0.054 µM at mouse TAAR1.
Consider `CCc1n[nH]c(C(=O)Nc2ccc(C[C@H]3NC[C@H]3F)cc2)c1C` [Example 103, 3-ethyl-N-(4-(((2R,3R)-3-fluoroazetidin-2-yl)methyl)phenyl)-4-methyl-1H-pyrazole-5-carboxamide], for which the inhibition constant (Ki) at rat TAAR1 was 1.27 µM; on mouse TAAR1 it was 0.0456 µM.
The corresponding values for `O=C(Nc1ccc(OC2CNC2)cc1)c1[nH]nc(C2CC2)c1Br` [Example 31, N-[4-(azetidin-3-yloxy)phenyl]-4-bromo-3-cyclopropyl-1H-pyrazole-5-carboxamide] are 0.0151 µM and 0.0036 µM.
For `Cc1ncc(C(=O)Nc2ccc(OC3CNC3)cc2)cn1` [Example 16, N-[4-(azetidin-3-yloxy)phenyl]-2-methyl-pyrimidine-5-carboxamide] the same measures were 0.633 µM and 0.0746 µM.
The corresponding values for `O=C(Nc1ccc(C=C2CNC2)cc1)c1ccnc(C(F)(F)F)c1` [Example 60, N-[4-(azetidin-3-ylidenemethyl)phenyl]-2-(trifluoromethyl)pyridine-4-carboxamide] are 0.0099 µM and 0.0084 µM.
As for `CO[C@@H]1CN[C@H]1Cc1ccccc1` [Example 95, (2S,3R)-2-benzyl-3-methoxyazetidine], the Ki was found to be 0.648 µM at rat TAAR1 and 2.77 µM at mouse TAAR1.
For `O=C(Nc1ccc(Cl)c(C(F)(F)F)c1)c1ccc(OC2CNC2)cc1` [Example 37, 4-(azetidin-3-yloxy)-N-(4-chloro-3-(trifluoromethyl)phenyl)benzamide] the same measures were 0.0026 µM and 0.0007 µM.
For `CCc1n[nH]c(C(=O)Nc2ccc(OC3CNC3)cc2)c1Br` [Example 47, N-[4-(azetidin-3-yloxy)phenyl]-4-bromo-3-ethyl-1H-pyrazole-5-carboxamide] the same measures were 0.0468 µM and 0.0039 µM.
For `O=C(Nc1ccc(CC2(F)CNC2)cc1)c1cnc(C(F)(F)F)cn1` [Example 70, N-[4-[(3-fluoroazetidin-3-yl)methyl]phenyl]-5-(trifluoromethyl)pyrazine-2-carboxamide] the same measures were 0.0099 µM and 0.0069 µM.
As to `Brc1ccc(C=C2CNC2)cc1` [Example 50, 3-[(4-bromophenyl)methylene]azetidine], the Ki at rat TAAR1 was 0.0998 µM; on mouse TAAR1, 0.793 µM.
For `CCOc1ccc(C(=O)Nc2ccc(C[C@H]3NC[C@H]3F)cc2)cn1` [Example 122, 6-ethoxy-N-(4-(((2R,3R)-3-fluoroazetidin-2-yl)methyl)phenyl)nicotinamide] the same measures were 1.16 µM and 0.0097 µM.
For `O=C(NCc1ccc(F)cc1)c1ccc(OC2CNC2)cc1` [Example 18, 4-(azetidin-3-yloxy)-N-[(4-fluorophenyl)methyl]benzamide] the same measures were 1.63 µM and 0.109 µM.
For `COc1ccc(NC(=O)Nc2ccc(OC3CNC3)cc2)cc1` [Example 108, 1-[4-(azetidin-3-yloxy)phenyl]-3-(4-methoxyphenyl)urea] the same measures were 0.0269 µM and 0.108 µM.
`O=C(Nc1ccc(OC2CNC2)c(F)c1)c1[nH]nc(C2CC2)c1Cl` [Example 25, N-[4-(azetidin-3-yloxy)-3-fluoro-phenyl]-4-chloro-3-cyclopropyl-1H-pyrazole-5-carboxamide]: the Ki at rat TAAR1 was 0.0113 µM; on mouse TAAR1 it was 0.003 µM.
The corresponding values for `O=C(Nc1ccc(OC2CNC2)cc1)c1[nH]nc(C2CC2)c1Cl` [Example 13, N-(4-(azetidin-3-yloxy)phenyl)-4-chloro-3-cyclopropyl-1H-pyrazole-5-carboxamide] are 0.0178 µM and 0.0033 µM.
For `O=C(Nc1ccc(CC2(F)CNC2)cc1)c1cnc(C(F)(F)F)nc1` [Example 55, N-[4-[(3-fluoroazetidin-3-yl)methyl]phenyl]-2-(trifluoromethyl)pyrimidine-5-carboxamide] the same measures were 0.0059 µM and 0.0161 µM.
For `O=C(Nc1ccc(CC2(F)CNC2)cc1)Nc1ccc(C(F)(F)F)cc1` [Example 105, 1-[4-[(3-fluoroazetidin-3-yl)methyl]phenyl]-3-[4-(trifluoromethyl)phenyl]urea] the same measures were 0.0016 µM and 0.0019 µM.
Take `CC(C)c1n[nH]c(C(=O)Nc2ccc(OC3CNC3)cc2)c1Cl` [Example 33, N-[4-(azetidin-3-yloxy)phenyl]-4-chloro-3-isopropyl-1H-pyrazole-5-carboxamide]: the Ki on rat TAAR1 was 0.0115 µM; at mouse TAAR1, 0.0075 µM.
The corresponding values for `Cc1cc(C(=O)Nc2cc(F)c(C=C3CNC3)c(F)c2)nc(C(F)(F)F)n1` [Example 82, N-(4-(azetidin-3-ylidenemethyl)-3,5-difluorophenyl)-6-methyl-2-(trifluoromethyl)pyrimidine-4-carboxamide] are 0.0055 µM and 0.0278 µM.
For `O=C(Nc1ccc(C=C2CNC2)cc1)c1cnc(C(F)(F)F)nc1` [Example 59, N-[4-(azetidin-3-ylidenemethyl)phenyl]-2-(trifluoromethyl)pyrimidine-5-carboxamide] the same measures were 0.0079 µM and 0.0089 µM.
On to `CCc1n[nH]c(C(=O)Nc2ccc(C=C3CNC3)c(F)c2)c1C` [Example 88, N-(4-(azetidin-3-ylidenemethyl)-3-fluorophenyl)-3-ethyl-4-methyl-1H-pyrazole-5-carboxamide], for which the values for the Ki on rat TAAR1 and on mouse TAAR1 were 0.005 µM and 0.0174 µM, respectively.
